Results from patent publication US20250306008A1, “PHARMACEUTICAL COMPOSITION FOR TREATING OR PREVENTING MALIGNANT BREAST CANCER” (KOREA ADVANCED INSTITUTE OF SCIENCE AND TECHNOLOGY, priority 2021, published 2025).

Tests used:
MDA-MB231 cells = test: Tamoxifen drug response (Incucyte confluency) after BCL11A and HDAC1/2 inhibition; format: cell-based; details: tamoxifen 10 uM
Protocol: (§1) Briefly, it is as follows: Cells were plated in 1×10^4 cells (3 repetitions for each condition; triplicate), after 24 hours, the cells were treated with the tamoxifen drug (10 uM) and monitored by taking pictures at 3-hour intervals using Incucyte for 72 hours. After that, the confluency of the cells in the pictures was calculated and the sensitivity of the cells to various drugs was graphed.

BT20 cells = test: as above; format: cell-based; details: tamoxifen 10 uM
Protocol: as §1

breast cancer patients = test: Patients' drug response to tamoxifen according to BCL11A and HDAC1/2 expression; parameters: species or system human; details: patient group with low expression of BCL11A and HDAC1/2 compared to the group with high expression
T47D cell line = test: Tamoxifen drug response after BCL11A and HDAC1/2 overexpression; format: cell-based, human
From the text: The present inventors confirmed the tamoxifen drug response in human breast cancer cell lines T47D and MCF7 upon overexpression (OE) of BCL11A and HDAC1/2.

| Compound | sensitivity of treated cells to Tamoxifen (cell confluency) (MDA-MB231 cells; MDA-MB231, monitored 72 hours) | sensitivity of treated cells to Tamoxifen (cell confluency) (BT20 cells; BT20, monitored 72 hours) | sensitivity of control cells (shScrambled) to Tamoxifen (MDA-MB231 cells; MDA-MB231 control cells (shScrambled), 72 hours) | sensitivity of control cells (shScrambled) to Tamoxifen (BT20 cells; BT20 control cells (shScrambled), 72 hours) | sensitivity of patient group to the tamoxifen drug (breast cancer patients) | sensitivity to tamoxifen of overexpressing cells (T47D cell line; T47D cells overexpressing BCL11A-OE, HDAC1/2-OE, or both) | response of control cells to tamoxifen (T47D cell line; T47D control cells) |
| --- | --- | --- | --- | --- | --- | --- | --- |
| shBCL11A: shRNA (GCATAGACGATGGCACTGTTA; SEQ ID NO: 1) designed to target the BCL11A gene, used as the BCL11A inhibitor | some sensitivity | some sensitivity |  |  |  |  |  |
| CC/C(=C(\c1ccccc1)c1ccc(OCCN(C)C)cc1)c1ccccc1 [Tamoxifen, tamoxifen] |  |  | did not show sensitivity | did not show sensitivity | higher sensitivity | did not show sensitivity | responded |
